From PubChem BioAssay (NCI)
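In this assay, cells in 96-well plates receive the compound at five concentrations for 48 hours. Endpoints are linearly interpolated between the surrounding concentrations. Abbreviation: GI50, concentration required for 50% inhibition of growth. Definition used: TGI = concentration required for complete inhibition of growth.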

Key:
Experiment in all cases: inhibition of tumour cell growth, NCI panel, 48 h
SR leukemia = tested on: SR leukemia
ACHN renal = tested on: ACHN renal
RXF 393 renal = tested on: RXF 393 renal
A498 renal = tested on: A498 renal
SF-295 CNS = tested on: SF-295 CNS
HCC-2998 colon = tested on: HCC-2998 colon
SN12C renal = tested on: SN12C renal
EKVX NSCLC = tested on: EKVX NSCLC
NCI/ADR-RES ovarian = tested on: NCI/ADR-RES ovarian
SNB-19 CNS = tested on: SNB-19 CNS
HOP-62 NSCLC = tested on: HOP-62 NSCLC
SNB-75 CNS = tested on: SNB-75 CNS
MALME-3M melanoma = tested on: MALME-3M melanoma
HCT-15 colon = tested on: HCT-15 colon
BT-549 breast = tested on: BT-549 breast
SW-620 colon = tested on: SW-620 colon
RPMI-8226 leukemia = tested on: RPMI-8226 leukemia
HCT-116 colon = tested on: HCT-116 colon
K-562 leukemia = tested on: K-562 leukemia
MOLT-4 leukemia = tested on: MOLT-4 leukemia
DU-145 prostate = tested on: DU-145 prostate
SK-MEL-5 melanoma = tested on: SK-MEL-5 melanoma
KM12 colon = tested on: KM12 colon
CCRF-CEM leukemia = tested on: CCRF-CEM leukemia
UACC-257 melanoma = tested on: UACC-257 melanoma
HL-60(TB) leukemia = tested on: HL-60(TB) leukemia
SF-268 CNS = tested on: SF-268 CNS
OVCAR-8 ovarian = tested on: OVCAR-8 ovarian
T-47D breast = tested on: T-47D breast
786-0 renal = tested on: 786-0 renal
U251 CNS = tested on: U251 CNS
NCI-H522 lung = tested on: NCI-H522 lung
MDA-MB-435 = tested on: MDA-MB-435
MCF7 breast = tested on: MCF7 breast
OVCAR-5 ovarian = tested on: OVCAR-5 ovarian
M14 melanoma = tested on: M14 melanoma
SF-539 CNS = tested on: SF-539 CNS
NCI-H460 lung = tested on: NCI-H460 lung
LOX IMVI melanoma = tested on: LOX IMVI melanoma
HT29 colon = tested on: HT29 colon
HOP-92 NSCLC = tested on: HOP-92 NSCLC
COLO 205 colon = tested on: COLO 205 colon
PC-3 prostate = tested on: PC-3 prostate
SK-MEL-28 melanoma = tested on: SK-MEL-28 melanoma
NCI-H23 lung = tested on: NCI-H23 lung
NCI-H226 lung = tested on: NCI-H226 lung
MDA-MB-231 breast = tested on: MDA-MB-231 breast
UACC-62 melanoma = tested on: UACC-62 melanoma
TK-10 renal = tested on: TK-10 renal
UO-31 renal = tested on: UO-31 renal
HS 578T breast = tested on: HS 578T breast
IGROV1 ovarian = tested on: IGROV1 ovarian
SK-MEL-2 melanoma = tested on: SK-MEL-2 melanoma
SK-OV-3 ovarian = tested on: SK-OV-3 ovarian
OVCAR-3 ovarian = tested on: OVCAR-3 ovarian
A549 NSCLC = tested on: A549 NSCLC
OVCAR-4 ovarian = tested on: OVCAR-4 ovarian
CAKI-1 renal = tested on: CAKI-1 renal

Nc1nc(-c2cccc(Cl)c2)c(-c2ccc3ncccc3n2)s1
GI50 (SR leukemia): > 25 µM | TGI (SR leukemia): > 25 µM | GI50 (ACHN renal): > 25 µM | TGI (ACHN renal): > 25 µM | GI50 (RXF 393 renal): > 25 µM | TGI (RXF 393 renal): > 25 µM | GI50 (A498 renal): 8.4 µM | TGI (A498 renal): > 25 µM | GI50 (SF-295 CNS): > 25 µM | TGI (SF-295 CNS): > 25 µM | GI50 (HCC-2998 colon): > 25 µM | TGI (HCC-2998 colon): > 25 µM | GI50 (SN12C renal): > 25 µM | TGI (SN12C renal): > 25 µM | GI50 (EKVX NSCLC): > 25 µM | TGI (EKVX NSCLC): > 25 µM | GI50 (NCI/ADR-RES ovarian): > 25 µM | TGI (NCI/ADR-RES ovarian): > 25 µM | GI50 (SNB-19 CNS): > 25 µM | TGI (SNB-19 CNS): > 25 µM | GI50 (HOP-62 NSCLC): > 25 µM | TGI (HOP-62 NSCLC): > 25 µM | GI50 (SNB-75 CNS): > 25 µM | TGI (SNB-75 CNS): > 25 µM | GI50 (MALME-3M melanoma): > 25 µM | TGI (MALME-3M melanoma): > 25 µM | GI50 (HCT-15 colon): > 25 µM | TGI (HCT-15 colon): > 25 µM | GI50 (BT-549 breast): > 25 µM | TGI (BT-549 breast): > 25 µM | GI50 (SW-620 colon): > 25 µM | TGI (SW-620 colon): > 25 µM | GI50 (RPMI-8226 leukemia): > 25 µM | TGI (RPMI-8226 leukemia): > 25 µM | GI50 (HCT-116 colon): > 25 µM | TGI (HCT-116 colon): > 25 µM | GI50 (K-562 leukemia): > 25 µM | TGI (K-562 leukemia): > 25 µM | GI50 (MOLT-4 leukemia): > 25 µM | TGI (MOLT-4 leukemia): > 25 µM | GI50 (DU-145 prostate): > 25 µM | TGI (DU-145 prostate): > 25 µM | GI50 (SK-MEL-5 melanoma): > 19.6 µM | TGI (SK-MEL-5 melanoma): > 25 µM | GI50 (KM12 colon): > 25 µM | TGI (KM12 colon): > 25 µM | GI50 (CCRF-CEM leukemia): > 25 µM | TGI (CCRF-CEM leukemia): > 25 µM | GI50 (UACC-257 melanoma): > 25 µM | TGI (UACC-257 melanoma): > 25 µM | GI50 (HL-60(TB) leukemia): > 25 µM | TGI (HL-60(TB) leukemia): > 25 µM | GI50 (SF-268 CNS): > 25 µM | TGI (SF-268 CNS): > 25 µM | GI50 (OVCAR-8 ovarian): > 25 µM | TGI (OVCAR-8 ovarian): > 25 µM | GI50 (T-47D breast): 5.88 µM | TGI (T-47D breast): > 25 µM | GI50 (786-0 renal): > 25 µM | TGI (786-0 renal): > 25 µM | GI50 (U251 CNS): > 25 µM | TGI (U251 CNS): > 25 µM | GI50 (NCI-H522 lung): > 25 µM | TGI (NCI-H522 lung): > 25 µM | GI50 (MDA-MB-435): > 25 µM | TGI (MDA-MB-435): > 25 µM | GI50 (MCF7 breast): > 25 µM | TGI (MCF7 breast): > 25 µM | GI50 (OVCAR-5 ovarian): > 25 µM | TGI (OVCAR-5 ovarian): > 25 µM | GI50 (M14 melanoma): > 25 µM | TGI (M14 melanoma): > 25 µM | GI50 (SF-539 CNS): > 25 µM | TGI (SF-539 CNS): > 25 µM | GI50 (NCI-H460 lung): > 25 µM | TGI (NCI-H460 lung): > 25 µM | GI50 (LOX IMVI melanoma): > 25 µM | TGI (LOX IMVI melanoma): > 25 µM | GI50 (HT29 colon): > 25 µM | TGI (HT29 colon): > 25 µM | GI50 (HOP-92 NSCLC): > 24 µM | TGI (HOP-92 NSCLC): > 25 µM | GI50 (COLO 205 colon): > 25 µM | TGI (COLO 205 colon): > 25 µM | GI50 (PC-3 prostate): > 25 µM | TGI (PC-3 prostate): > 25 µM | GI50 (SK-MEL-28 melanoma): > 25 µM | TGI (SK-MEL-28 melanoma): > 25 µM | GI50 (NCI-H23 lung): > 25 µM | TGI (NCI-H23 lung): > 25 µM | GI50 (NCI-H226 lung): > 22 µM | TGI (NCI-H226 lung): > 25 µM | GI50 (MDA-MB-231 breast): > 25 µM | TGI (MDA-MB-231 breast): > 25 µM | GI50 (UACC-62 melanoma): > 25 µM | TGI (UACC-62 melanoma): > 25 µM | GI50 (TK-10 renal): > 17.2 µM | TGI (TK-10 renal): > 25 µM | GI50 (UO-31 renal): 10.1 µM | TGI (UO-31 renal): > 25 µM | GI50 (HS 578T breast): > 25 µM | TGI (HS 578T breast): > 25 µM | GI50 (IGROV1 ovarian): 22.4 µM | TGI (IGROV1 ovarian): > 25 µM | GI50 (SK-MEL-2 melanoma): > 25 µM | TGI (SK-MEL-2 melanoma): > 25 µM | GI50 (SK-OV-3 ovarian): > 25 µM | TGI (SK-OV-3 ovarian): > 25 µM | GI50 (OVCAR-3 ovarian): > 25 µM | TGI (OVCAR-3 ovarian): > 25 µM | GI50 (A549 NSCLC): > 25 µM | TGI (A549 NSCLC): > 25 µM | GI50 (OVCAR-4 ovarian): > 25 µM | TGI (OVCAR-4 ovarian): > 25 µM | GI50 (CAKI-1 renal): > 25 µM | TGI (CAKI-1 renal): > 25 µM
